Experimental data reported in ChEMBL document CHEMBL4602669, “Bishomoscalarane Sesterterpenoids from the Sponge Dysidea granulosa Collected in the South China Sea” (2020).

Experiments:
Format in all cases: functional
HCT-116 = experiment: Antiproliferative activity against human HCT116 cells by MTT assay
A549 = experiment: Antiproliferative activity against human A549 cells by MTT assay
Bel-7402 = experiment: Antiproliferative activity against human Bel7402 cells by MTT assay
K562 = experiment: Antiproliferative activity against human K562 cells by MTT assay
Jurkat = experiment: Antiproliferative activity against human Jurkat cells by MTT assay

GI50 (HCT-116) [µM]	GI50 (A549) [µM]	GI50 (Bel-7402) [µM]	GI50 (K562) [µM]	GI50 (Jurkat) [µM]	Structure (SMILES)
14	12	14	11	–	CC[C@@]1(C)CCC[C@]2(C)[C@H]3C[C@H](OC(=O)CC(C)O)[C@]45C[C@@H](O)[C@H]4C(C(C)=O)=CC[C@H]5[C@]3(C)CC[C@@H]12 (stereo partly drawn)
> 30	> 30	> 30	> 30	> 30	CC[C@@]1(C)CCC[C@]2(C)[C@H]3C[C@H](O)[C@]4(C)C5=C(CC[C@H]4[C@]3(C)CC[C@@H]12)C(=O)C[C@H]5O
> 30	> 30	> 30	> 30	> 30	CC/C1=C/CO[C@@]2(C)[C@@H](O)C[C@@H]3[C@@]4(C)CCC[C@](C)(CC)[C@@H]4CC[C@@]3(C)[C@@H]2CC1
< 1	< 1	< 1	< 1	< 1	COc1cccc2c1C(=O)c1c(O)c3c(c(O)c1C2=O)C[C@@](O)(C(=O)CO)C[C@@H]3O[C@H]1C[C@H](N)[C@H](O)[C@H](C)O1 [DOXORUBICIN]
> 30	> 30	> 30	> 30	> 30	CC(=O)O[C@H]1C[C@@H]2[C@@]3(C)CCC[C@@]4(C[C@@H]4C)[C@@H]3CC[C@@]2(C)[C@@H]2CCC3=C(C(=O)O[C@H]3C)[C@@]12C
> 30	> 30	> 30	> 30	> 30	CCC(O)CC(=O)O[C@H]1C[C@@H]2[C@@]3(C)CCC[C@](C)([C@H](C)OC(C)=O)[C@@H]3CC[C@@]2(C)[C@@H]2C[C@H](O)C(C(C)=O)=C[C@@]12C (stereo partly drawn)
> 30	> 30	> 30	> 30	> 30	CCC(=O)O[C@@H](C)[C@@]1(C)CCC[C@@]2(C)[C@H]1CC[C@]1(C)[C@@H]2C[C@H](OC(=O)CC(O)CC)[C@]2(C)C3=C(CC[C@@H]12)[C@H](C)OC3=O (stereo partly drawn)
> 30	> 30	> 30	> 30	> 30	CC(O)CC(=O)O[C@H]1C[C@@H]2[C@@]3(C)CCC[C@@]4(C[C@@H]4C)[C@@H]3CC[C@@]2(C)[C@@H]2C[C@@H](O)C3=C([C@H](O)CC3=O)[C@@]12C (stereo partly drawn)
> 30	> 30	> 30	> 30	> 30	CC(=O)O[C@H]1C[C@@H]2[C@@]3(C)CCC[C@@]4(C[C@@H]4C)[C@@H]3CC[C@@]2(C)[C@@H]2CCC3=C(C(=O)O[C@@H]3C)[C@@]12C
> 30	> 30	> 30	> 30	> 30	CC(=O)OC(C)CC(=O)O[C@H]1C[C@@H]2[C@@]3(C)CCC[C@](C)([C@H](C)OC(C)=O)[C@@H]3CC[C@@]2(C)[C@@H]2C[C@@H](O)C(C(C)=O)=C[C@@]12C (stereo partly drawn)
> 30	> 30	> 30	> 30	> 30	CCC(=O)O[C@H]1C[C@@H]2[C@@]3(C)CCC[C@@]4(C[C@@H]4C)[C@@H]3CC[C@@]2(C)[C@@H]2CCC3=C(C(=O)O[C@H]3C)[C@@]12C
> 30	> 30	> 30	> 30	> 30	CCC(=O)O[C@@H](C)[C@@]1(C)CCC[C@@]2(C)[C@H]1CC[C@]1(C)[C@@H]2C[C@H](OC(=O)CC(O)CC)[C@]2(C)C3=C(CC[C@@H]12)[C@@H](C)OC3=O (stereo partly drawn)
> 30	> 30	> 30	> 30	> 30	CC(=O)O[C@@H](C)[C@@]1(C)CCC[C@@]2(C)[C@H]1CC[C@]1(C)[C@@H]2C[C@H](OC(=O)CC(C)O)[C@]2(C)C=C(C(C)=O)[C@H](O)C[C@H]21 (stereo partly drawn)
> 30	> 30	> 30	> 30	> 30	CC[C@@]1(C)CCC[C@]2(C)[C@H]3C[C@H](OC(=O)CC(C)O)[C@]4(C)C=C(C(C)=O)[C@H](O)C[C@H]4[C@]3(C)CC[C@@H]12 (stereo partly drawn)
6.4	8.1	11	–	13	CC(=O)C1=C[C@@]2(C)[C@@H](OC(=O)CC(C)O)C[C@H]3[C@@](C)(CC[C@@H]4[C@]3(C)CCC[C@@]43C[C@@H]3C)[C@@H]2C[C@H]1O (stereo partly drawn)
